Legend:
androgen receptor = biological target: T1, androgen receptor (Homo sapiens, UniProt P10275, T878A); test: PSA (6.1 kb)-luciferase reporter assay in LNCaP cells induced with R1881; assay type: cell-based; settings: R1881 1 nM, 48 h, mean with standard error
T1 construct: endogenous in cells; host or cells: LNCaP
T1 sequence (P10275 1-920 T878A): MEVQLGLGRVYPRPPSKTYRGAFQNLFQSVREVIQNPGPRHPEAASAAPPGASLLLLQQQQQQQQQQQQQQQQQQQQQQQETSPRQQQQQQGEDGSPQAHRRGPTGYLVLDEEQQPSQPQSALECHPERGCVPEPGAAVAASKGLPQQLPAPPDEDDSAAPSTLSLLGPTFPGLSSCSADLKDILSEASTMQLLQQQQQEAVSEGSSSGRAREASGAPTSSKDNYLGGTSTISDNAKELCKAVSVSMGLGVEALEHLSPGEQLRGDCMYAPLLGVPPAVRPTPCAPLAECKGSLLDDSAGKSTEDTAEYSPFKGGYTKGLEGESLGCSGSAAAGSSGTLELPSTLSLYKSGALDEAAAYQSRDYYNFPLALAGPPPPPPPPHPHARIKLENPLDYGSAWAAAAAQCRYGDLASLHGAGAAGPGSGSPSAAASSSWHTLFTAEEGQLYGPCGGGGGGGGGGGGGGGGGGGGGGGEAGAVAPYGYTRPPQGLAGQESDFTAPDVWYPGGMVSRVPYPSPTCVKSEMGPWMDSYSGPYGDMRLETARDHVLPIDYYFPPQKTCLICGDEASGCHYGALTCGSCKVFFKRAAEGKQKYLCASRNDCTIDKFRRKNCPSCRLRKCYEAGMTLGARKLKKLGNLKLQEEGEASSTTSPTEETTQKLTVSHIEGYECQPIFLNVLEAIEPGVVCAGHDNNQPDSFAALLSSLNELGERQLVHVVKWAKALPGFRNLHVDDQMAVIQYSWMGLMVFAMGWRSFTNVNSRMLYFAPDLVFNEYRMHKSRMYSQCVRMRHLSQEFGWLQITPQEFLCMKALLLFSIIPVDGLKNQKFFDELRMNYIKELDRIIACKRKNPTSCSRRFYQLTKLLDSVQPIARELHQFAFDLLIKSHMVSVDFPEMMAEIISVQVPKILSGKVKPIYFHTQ
Protocol: LNCaP cells (3×10^4) were seeded into 24-well plates overnight. […] Luciferase activities were measured and normalized to protein concentration determined by the Bradford assay. IC50 calculations were done using OriginPro 8.1 Software (Northampton, MA, USA). Transfection experiments to determine IC50 values were performed in at least 4 independent experiments (“trials”) using triplicate wells.

PSA mRNA = PSA mRNA in LNCaP xenografts by QPCR; assay type: in vivo, mice
Text: Quantitative Real-Time Polymerase Chain Reaction (QPCR) Method: LNCaP xenografts were homogenized using TRIzol® reagent (Invitrogen™), and total RNA was extracted using PureLink RNA Mini Kit (Life Technologies). Amplification Grade DNase I treatment (Sigma-Aldrich) was applied to the RNA before RT-PCR using High Capacity RNA-to-DNA kit (Life Technologies) to generate cDNA. cDNA and gene-specific primers were combined with Platinum® SYBR® Green qPCRSuperMix-UDG with ROX (Invitrogen™). Transcripts were measured by quantitative real-time PCR (QPCR) using ABI PRISM 7900 Sequence Detection System (ABI PRISM®, Applied Biosystems by Life Technologies) in triplicates for each biological sample. Gene expression levels were normalized to housekeeping gene RPL13A. Primers for PSA have been previously described (Andersen R. J., et al. Cancer Cell. 2010; Myung J. K., et al. J. Clin. Invest. 2013).
In FIG. 6, bars represent mean±SEM with n=5 representative tumors from each treatment group. One-way ANOVA post-hoc Tukey's multiple comparisons test was performed for statistical analysis. *p<0.05; **p<0.01; ***p<0.001.

LNCaP xenografts = test: LNCaP xenograft model in castrated NOD-SCID mice, tumor volume; assay type: in vivo
Protocol: LNCaP Cell Preparation: LNCaP cells were passaged prior to seeding in T175flasks at a concentration of ˜2-3×10^7/mL. The cells were grown for 7 days until 90% confluent. Cell preparations were then prepared in RPMI with 5% FBS/Matrigel (50/50, v/v) yielding a final concentration of 1×10^8/mL.
Tumor Induction and Treatment: Six to eight week old NOD-SCID mice were received from BC Cancer Research Centre's Animal Resource Centre and acclimated for 28 days. Tumors were initiated with […]. Tumors were allowed to grow to an average size of approximately 100 mm^3. Mice were then castrated and the tumors allowed to adapt for a period of one week before first dose was administered. Tumor volume was measured as length×width×height in mm multiplied by 0.5236.
Compound Preparation and Treatment: Compound 1a was dissolved in 100% DMSO (ATCC Lot 61908420) to yield a stock solution of 157 mg/mL. Compound 1a was administered as an oral gavage once per day at dose levels of 10 and 30 mg/kg. Vehicle control animals were administered 1% CMC formulation as an oral gavage once daily. […]
Oral treatment was initiated one week after castration. […] Two days after the last dose, the tumours were measured and harvested. Body weight was assessed daily throughout the treatment period. Tumor volume was measured on day −7 (castration day), and again on days 1, 4, 8, 12, 16, 20, 24 and 26.

[1] = Body weight in LNCaP xenograft model; assay type: in vivo, mice; settings: daily oral 10 or 30 mg/kg, start vs day 26, vs CMC control
Protocol: Compound Preparation and Treatment: Compound 1a was dissolved in 100% DMSO (ATCC Lot 61908420) to yield a stock solution of 157 mg/mL. Compound 1a was administered as an oral gavage once per day at dose levels of 10 and 30 mg/kg. Vehicle control animals were administered 1% CMC formulation as an oral gavage once daily. CMC (n=17 tumours); 10 mg/kg (n=15 tumours); 30 mg/kg (n=14 tumours). CMC (n=9 animals); 10 mg/kg (n=9 animals); 30 mg/kg (n=9 animals).
Oral treatment was initiated one week after castration. The start of treatment was designated “Day 1” and animals were treated once daily for a total of 24 doses. Two days after the last dose, the tumours were measured and harvested. Body weight was assessed daily throughout the treatment period. Tumor volume was measured on day −7 (castration day), and again on days 1, 4, 8, 12, 16, 20, 24 and 26.

IC50 (androgen receptor) [nM] | Structure (SMILES) | other results
3120 ± 680 | CC(C)(c1ccc(OC[C@H](O)Cn2ccnc2)cc1)c1cc(Cl)c(OC[C@H](O)CCl)c(Cl)c1 [Compound 9a, (S)-1-chloro-3-(2,6-dichloro-4-(2-(4-((R)-2-hydroxy-3-(1H-imidazol-1-yl)propoxy)phenyl)propan-2-yl)phenoxy)propan-2-ol] | 
1050 ± 150 | CC(C)(c1ccc(OC[C@H](O)CN2CCOCC2)cc1)c1cc(Cl)c(OC[C@H](O)CCl)c(Cl)c1 [Compound 11a, (S)-1-chloro-3-(2,6-dichloro-4-(2-(4-((R)-2-hydroxy-3-morpholinopropoxy)phenyl)propan-2-yl)phenoxy)propan-2-ol] | 
2260 ± 240 | CC(C)(c1ccc(OC[C@H](O)CN)cc1)c1cc(Cl)c(OC[C@H](O)CCl)c(Cl)c1 [Compound 12a, (R)-1-amino-3-(4-(2-(3,5-dichloro-4-((S)-3-chloro-2-hydroxypropoxy)phenyl)propan-2-yl)phenoxy)propan-2-ol] | 
1000 ± 160 | CC(C)(c1ccc(OC[C@H](O)CNS(C)(=O)=O)cc1)c1cc(Cl)c(OC[C@H](O)CCl)c(Cl)c1 [Compound 13a, N-((R)-3-(4-(2-(3,5-dichloro-4-((S)-3-chloro-2-hydroxypropoxy)phenyl)propan-2-yl)phenoxy)-2-hydroxypropyl)methanesulfonamide] | 
950 ± 210 | CCS(=O)(=O)C[C@@H](O)COc1ccc(C(C)(C)c2cc(Cl)c(OC[C@H](O)CCl)c(Cl)c2)cc1 [Compound 14a, (S)-1-chloro-3-(2,6-dichloro-4-(2-(4-((S)-3-(ethylsulfonyl)-2-hydroxypropoxy)phenyl)propan-2-yl)phenoxy)propan-2-ol] | 

Second part, the compound before the results:

Structure (SMILES) | IC50 (androgen receptor) [nM] | other results
CC(=O)OC[C@H](COc1ccc(C(C)(C)c2ccc(OC[C@@H](CCl)OC(C)=O)cc2)cc1)OC(C)=O [B, reference compound] | 10700 ± 1040 | 
CC(C)(c1ccc(OC[C@H](O)CO)cc1)c1ccc(OC[C@H](O)CCl)c(Cl)c1 [C, reference compound] | 2470 ± 260 | 
CC(C)(c1ccc(OC[C@H](O)CO)cc1)c1cc(Cl)c(OC[C@H](O)CCl)c(Cl)c1 [Compound 1a, (R)-3-(4-(2-(3,5-dichloro-4-((S)-3-chloro-2-hydroxypropoxy)phenyl)propan-2-yl)phenoxy)propane-1,2-diol] | 1410 ± 270 | mRNA expression of PSA in tumors (PSA mRNA; 30 mg/kg oral daily, compared to the 10 mg/kg dose and control treatment): significant reduction of PSA expression; mRNA expression of PSA in tumors (PSA mRNA; 10 and 30 mg/kg oral daily, QPCR normalized to RPL13A, n=5 tumors): dose-dependent inhibition of the mRNA expression of PSA; tumor growth / tumor volume at the end of the treatment period (LNCaP xenografts; daily oral 10 mg/kg or 30 mg/kg, castrated NOD-SCID mice, day 26, vs CMC control): inhibition of tumor growth and significant reduction of tumor volume; difference in tumor volumes between the 10 mg/kg and 30 mg/kg doses (LNCaP xenografts; daily oral, 10 mg/kg vs 30 mg/kg): no statistical difference in the tumor volumes; start and finish body weights [1]: no significant differences between the start and finish body weights
COC[C@@H](O)COc1ccc(C(C)(C)c2cc(Cl)c(OC[C@H](O)CCl)c(Cl)c2)cc1 [Compound 5a, (S)-1-chloro-3-(2,6-dichloro-4-(2-(4-((R)-2-hydroxy-3-methoxypropoxy)phenyl)propan-2-yl)phenoxy)propan-2-ol] | 1030 ± 390 | 
